Converted amounts (≈) assume the structure as drawn.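 Assay format: 96-well plates, 48-hour exposure. GI50: concentration for 50% inhibition of growth. TGI: total growth inhibition.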
Experiments:
Test in all cases: inhibition of tumour cell growth, NCI panel, 48 h; in the data active = GI50 below about 0.43 µM; inactive = the rest
UACC-62 melanoma = test system: UACC-62 melanoma
NCI-H23 lung = test system: NCI-H23 lung
HCT-15 colon = test system: HCT-15 colon
MOLT-4 leukemia = test system: MOLT-4 leukemia
M14 melanoma = test system: M14 melanoma
HOP-92 NSCLC = test system: HOP-92 NSCLC
HCT-116 colon = test system: HCT-116 colon
SNB-75 CNS = test system: SNB-75 CNS
NCI-H460 lung = test system: NCI-H460 lung
SK-MEL-2 melanoma = test system: SK-MEL-2 melanoma

Clc1ccc(N=c2oc3ccccc3cc2-c2nc3ccccc3[nH]2)c(Cl)c1
> 100 µM: TGI (UACC-62 melanoma) | TGI (NCI-H23 lung) | TGI (HCT-15 colon) | TGI (MOLT-4 leukemia) | TGI (M14 melanoma) | TGI (HOP-92 NSCLC) | TGI (HCT-116 colon)

NCCCCNCCCNC(=O)c1nc(-c2csc(CCN)n2)sc1Cl
> 100 µM: TGI (UACC-62 melanoma) | TGI (NCI-H23 lung) | TGI (SNB-75 CNS) | TGI (HCT-15 colon) | TGI (NCI-H460 lung) | TGI (MOLT-4 leukemia) | TGI (M14 melanoma) | TGI (SK-MEL-2 melanoma) | TGI (HOP-92 NSCLC) | TGI (HCT-116 colon)

COc1cc(S(=O)(=O)Nc2ccc(C3=NNC(c4ccccc4)C3)cc2)ccc1F (configuration not stated)
inactive: GI50 (NCI-H23 lung) 34.6 µM | GI50 (SNB-75 CNS) 23.9 µM | GI50 (HCT-15 colon) 49 µM | GI50 (NCI-H460 lung) 32.3 µM | GI50 (MOLT-4 leukemia) 48.3 µM | GI50 (M14 melanoma) 27.6 µM | GI50 (SK-MEL-2 melanoma) > 100 µM | GI50 (HCT-116 colon) 17.3 µM
45.2 µM: TGI (UACC-62 melanoma)
> 100 µM: TGI (NCI-H23 lung) | TGI (SNB-75 CNS) | TGI (HCT-15 colon) | TGI (NCI-H460 lung) | TGI (MOLT-4 leukemia) | TGI (M14 melanoma) | TGI (SK-MEL-2 melanoma) | TGI (HCT-116 colon)

COc1cc(/C=C2/N=C(c3ccccc3)N(C3=NNC4(C(=O)N3)c3ccccc3-c3ccccc34)NC2=O)ccc1O
> 150 µg/mL: TGI (HCT-15 colon)
inactive: GI50 (UACC-62 melanoma) 27.4 µg/mL (≈ 49.2 µM) | GI50 (NCI-H23 lung) 15 µg/mL | GI50 (SNB-75 CNS) 23.4 µg/mL | GI50 (HCT-15 colon) 46.7 µg/mL | GI50 (NCI-H460 lung) 28 µg/mL | GI50 (MOLT-4 leukemia) 35.7 µg/mL | GI50 (M14 melanoma) 34.7 µg/mL | GI50 (HCT-116 colon) 26.1 µg/mL
47.3 µg/mL: TGI (HCT-116 colon)
49.1 µg/mL: TGI (NCI-H460 lung)
48.3 µg/mL: TGI (UACC-62 melanoma)
123 µg/mL: TGI (MOLT-4 leukemia)
15 µg/mL: TGI (NCI-H23 lung)
105 µg/mL: TGI (M14 melanoma)
45.8 µg/mL: TGI (SNB-75 CNS)

C#CCn1c(=O)c(C#N)c(O)c2cc3ccccc3nc21
> 100 µM: TGI (UACC-62 melanoma) | TGI (NCI-H23 lung) | TGI (SNB-75 CNS) | TGI (HCT-15 colon) | TGI (NCI-H460 lung) | TGI (MOLT-4 leukemia) | TGI (SK-MEL-2 melanoma) | TGI (HOP-92 NSCLC) | TGI (HCT-116 colon)

O=C(N[C@H]1c2ccsc2/C(=N/O)[C@H]1O)C(F)(F)F
> 100 µM: TGI (UACC-62 melanoma) | TGI (NCI-H23 lung) | TGI (SNB-75 CNS) | TGI (HCT-15 colon) | TGI (NCI-H460 lung) | TGI (MOLT-4 leukemia) | TGI (M14 melanoma) | TGI (SK-MEL-2 melanoma) | TGI (HOP-92 NSCLC) | TGI (HCT-116 colon)

CC1(Cl)CC2C(CC1Sc1nnnn1-c1ccccc1)C2(C)C (configuration not stated)
> 100 µM: TGI (UACC-62 melanoma) | TGI (NCI-H23 lung) | TGI (HCT-15 colon) | TGI (NCI-H460 lung) | TGI (MOLT-4 leukemia) | TGI (M14 melanoma) | TGI (SK-MEL-2 melanoma) | TGI (HOP-92 NSCLC) | TGI (HCT-116 colon)

CC(=O)Oc1ccc(C2COc3cc(OC(C)=O)c(OC(C)=O)cc3C2)cc1 (configuration not stated)
32.6 µM: TGI (SNB-75 CNS)
24.2 µM: TGI (UACC-62 melanoma)
37.7 µM: TGI (NCI-H23 lung)
41.5 µM: TGI (SK-MEL-2 melanoma)
62 µM: TGI (MOLT-4 leukemia)
40.8 µM: TGI (HCT-15 colon)
33.9 µM: TGI (HCT-116 colon)
24.9 µM: TGI (HOP-92 NSCLC)
47.3 µM: TGI (NCI-H460 lung)

— PubChem BioAssay (NCI)
